Data taken from patent US7527975B2, “Determination of high lipophilicity values” (Hoffmann-La Roche Inc., priority 2005, dated 2009).

How the values were obtained:
[1] = DIFI-log D: octanol-impregnated PVDF membrane (DIFI-tubes) / buffer distribution, UV readout; conditions: for logD at 2 h: pH 7.4
Experimental: All compounds of the validation set were dissolved in dimethylsulfoxide at a concentration of 10 mM (DMSO-stock).
The experiment started with the accurate coating of 0,45 μm hydrophobic PVDF membranes (Immobilon-P PVDF (Millipore) and PVDF-Plus (Whatman, Headquater: 27 Great West Road, Brentford, Middlesex, TW8 9BW, UK), which were fixed on the bottom of the DI FI-tub es.
Each membrane is impregnated with exactly 1 μl octanol and 1μl DMSO-stock.
After a short incubation of 10 min the tubes with the coated membranes were connected to a 96-deepwell plate which had been prefilled with exactly 1600 μl of the selected buffer solution (50 mM TAPSO (FLUKA, BioChemika, ArtNo.93357), pH 7.4).
The plate was then sealed and shaken for two hours. During this time the substance was distributed between the membrane, the octanol and the buffer solution accordingly.
After the distribution equilibrium was reached (after 2 h) the tubes were carefully disassembled from the top of the deepwell plate in order to analyze the octanol phase which still stucks to the membrane.
Therefore, the remaining compound in the octanol phase was washed out with additional octanol as eluent. The concentration of the substance in the eluent was then determined by UV spectroscopy at absorption wavelengths between 250 and 450 nm.
In order to know the exact sample concentration before incubation with buffer a reference plate was generated under the same conditions as the described sample plate above. The reference plate was directly treated with the eluent and the resulted reference concentration in the octanol phase was measured by UV spectroscopy.
The lipophilicity value log D may be calculated from the analyzed sample concentration after incubation with buffer (Co) and the reference concentration before distribution (Cref).
Due to the fact, that all UV measurements were carried out under the same conditions, the concentration term were replaced by UV-absorption values (Abs) at the same wavelength.
In this equation, Vw is the volume of the aqueous phase was divided by the volume of the octanol phase Vo.
For each compounds three determinations were performed according to the described method above. The preparation of the reference and sample plate was performed manually.

[2] = known log D values from literature; sources a) MEDChem01, MEDChem03, b) calculated from logP and pKa, c) Winiwarter et al. 1998; cited from earlier work

Row | Structure (SMILES) | logD at 2 h [1] | Lit. log D [2] | DIFI-log D ([1]; 1 μl octanol on 0,45 μm PVDF membrane / 1600 μl 50 mM TAPSO pH 7.4, shaken 2 h, UV 250-450 nm, three determinations)
1 | COc1ccc(CCN2CCC(Nc3nc4ccccc4n3Cc3ccc(F)cc3)CC2)cc1 [Astemizole] | 4.12 | 4.10 | –
2 | COc1ccccc1OCCNCC(O)COc1cccc2[nH]c3ccccc3c12 (centres unmarked) [Carvedilol] | 3.38 | 3.37 | –
3 | CN(C)CC/C=C1/c2ccccc2Sc2ccc(Cl)cc21 [Chlorprothixene] | 4.24 | 4.19 | –
4 | Clc1ccccc1C(c1ccccc1)(c1ccccc1)n1ccnc1 [Clotrimazole] | 4.91 | 4.99 | –
5 | C[C@@H]1C[C@H]2[C@@H]3CCC4=CC(=O)C=C[C@]4(C)[C@@]3(F)[C@@H](O)C[C@]2(C)[C@@]1(O)C(=O)CO [Dexamethasone] | – | – | 1.83
6 | COc1ccc([C@@H]2Sc3ccccc3N(CCN(C)C)C(=O)[C@@H]2OC(C)=O)cc1 [Diltiazem] | 2.33 | 2.32 | –
7 | CCOC(=O)C1=C(C)NC(C)=C(C(=O)OC)C1c1cccc(Cl)c1Cl (centres unmarked) [Felodipine] | 4.84 | – | –
8 | Clc1ccc(C(c2ccccc2Cl)C(Cl)Cl)cc1 (centres unmarked) [Mitotane] | 4.78 | 4.87 | –
9 | COCCOC(=O)C1=C(C)NC(C)=C(C(=O)OC(C)C)C1c1cccc([N+](=O)[O-])c1 (centres unmarked) [Nimodipine] | 3.61 | 3.73 | –
10 | C[C@]12CC[C@H]3[C@@H](CCC4=CC(=O)CC[C@@]43C)[C@@H]1CC[C@@H]2O [Testosterone] | 3.33 | – | –
